Test results as given in ChEMBL document CHEMBL1128645, “Synthesis and antiviral activity of phosphonate derivatives of enantiomeric dihydro-2H-pyranyl nucleosides” (Bioorg Med Chem Lett, 1995).
Calls of active or inactive are those of the source. No cut-off for these calls is given here.

Tests used:
[1] = Half life at pH 3; type: ADME; conditions: buffer
Cytomegalovirus = experiment: Antiviral activity against cytomegalovirus (CMV); no activity; type: functional, organism-based
[2] = tested on: Human immunodeficiency virus 1; experiment: Antiviral activity against human immunodeficiency virus(HIV-1); no activity; type: functional, organism-based
Human alphaherpesvirus 2 = experiment: Antiviral activity against herpes simplex virus (HSV-2); no activity; type: functional, organism-based
Human alphaherpesvirus 1 = experiment: Antiviral activity against herpes simplex virus (HSV-1); no activity; type: functional, organism-based
[3] = tested on: Human immunodeficiency virus 2; experiment: Antiviral activity against human immunodeficiency virus(HIV-2); no activity; type: functional, organism-based
Human alphaherpesvirus 3 = experiment: Antiviral activity against Varicella-Zoster virus (VZV); no activity; type: functional, organism-based

Which half-life [1] does the source give for Nc1nc(O)c2ncn([C@H]3C=C[C@@H](OCP(=O)(O)O)CO3)c2n1 here?
Its half-life is 5 h.

Which results are given for Nc1nc(O)c2ncn([C@@H]3C=C[C@H](OCP(=O)(O)O)OC3)c2n1?
Activity (Cytomegalovirus): inactive; Activity [2]: inactive; Activity (Human alphaherpesvirus 2): inactive; Activity (Human alphaherpesvirus 1): inactive; Activity [3]: inactive; Activity (Human alphaherpesvirus 3): inactive

For Nc1nc(O)c2ncn([C@H]3C=C[C@@H](OCP(=O)(O)O)OC3)c2n1, which Activity (Cytomegalovirus) is on record?
Its Activity is “inactive”.

And the Activity [2]?
Its Activity is “inactive”.

And the Activity (Human alphaherpesvirus 2)?
The Activity was “inactive”.

And the Activity (Human alphaherpesvirus 1)?
The Activity was “inactive”.

What about the Activity [3] of the same compound?
The Activity was “inactive”.

What about the Activity (Human alphaherpesvirus 3) of the same compound?
Its Activity is “inactive”.
